Values joined by “and” are separate entries in the source; they are usually repeats but may differ in a detail not shown here. Identical values can stand only once. Inconclusive results are not listed.
Tested on: BDF1 mice, B16 melanoma s.c., survival/tumor T/C
Experiment: NCI In Vivo Anticancer Drug Screen. Data for tumor model B16 Melanoma (subcutaneous) in B6D2F1 (BDF1) mice
Conditions: endpoint: median survival time, higher = longer survival
Method: The antitumor activity of compounds was measured in mice bearing transplantable tumors. Survival or tumor size were measured and the results are expressed as the measurement made in the treated group (T) divided by the measurement made in the vehicle treated control group (C). The tumor model used in this assay is B16 Melanoma (subcutaneous) in B6D2F1 (BDF1) mice

SMILES: Nc1c(Cl)c(Cl)nc(C(=O)O)c1Cl
- T/C (dose: 3.12 mg/kg/injection, schedule: Q02DX009 (ip), vehicle: Klucel (hydroxypropylcellulose) (HPC)): 108 % of control
- T/C (dose: 6.25 mg/kg/injection, schedule: Q01DX015 (sc), vehicle: other): 105 % of control
- T/C (dose: 6.25 mg/kg/injection, schedule: Q02DX009 (ip), vehicle: Klucel (hydroxypropylcellulose) (HPC)): 97 % of control
- T/C (dose: 12.5 mg/kg/injection, schedule: Q01DX015 (sc), vehicle: other): 105 % of control
- T/C (dose: 25.0 mg/kg/injection, schedule: Q01DX015 (sc), vehicle: other): 101 % of control
- T/C (dose: 50.0 mg/kg/injection, schedule: Q02DX009 (ip), vehicle: Klucel (hydroxypropylcellulose) (HPC)): 94 % of control
- T/C (dose: 100.0 mg/kg/injection, schedule: Q02DX009 (ip), vehicle: Klucel (hydroxypropylcellulose) (HPC)): 90 % of control
- T/C (dose: 200.0 mg/kg/injection, schedule: Q02DX009 (ip), vehicle: Klucel (hydroxypropylcellulose) (HPC)): 87 % of control

SMILES: O=P1(NCCCl)OCCCN1CCCl (stereo not given)
- T/C (dose: 300.0 mg/kg/injection, schedule: Q01DX001 (ip), vehicle: saline): 154 % of control
- T/C (dose: 460.0 mg/kg/injection, schedule: Q01DX001 (ip), vehicle: saline): 150 % of control

SMILES: CCSC(=O)N1c2ccc(OC)cc2C=CC1C#N (stereo not given)
- T/C (dose: 100.0 mg/kg/injection, schedule: Q01DX009 (ip), vehicle: saline with Tween-80): 109 % of control
- T/C (dose: 200.0 mg/kg/injection, schedule: Q01DX009 (ip), vehicle: saline with Tween-80): 114 % of control

SMILES: CC(C)CCC[C@@H](C)[C@H]1CC[C@H]2[C@@H]3CC=C4C[C@@H](O)CC[C@]4(C)[C@H]3CC[C@]12C
- T/C (dose: 12.5 mg/kg/injection, schedule: Q01DX009 (ip), vehicle: other): 120 % of control
- T/C (dose: 25.0 mg/kg/injection, schedule: Q01DX009 (ip), vehicle: other): 96 % of control
- T/C (dose: 50.0 mg/kg/injection, schedule: Q01DX009 (ip), vehicle: other): 119 % of control

SMILES: CC1(C)N=C(N)N=C(N)N1c1ccc(OCC(=O)N2CCOCC2)c(Cl)c1
- T/C (dose: 50.0 mg/kg/injection, schedule: Q01DX009 (ip), vehicle: saline): 103 % of control
- T/C (dose: 100.0 mg/kg/injection, schedule: Q01DX009 (ip), vehicle: saline): 114 % of control

SMILES: COC12C(COC(N)=O)C3=C(C(=O)C(C)=C(N)C3=O)N1CC1C2N1C (stereo not given)
- T/C (dose: 1.0 mg/kg/injection, schedule: Q01DX009 (ip), vehicle: Klucel (hydroxypropylcellulose) (HPC)): 106 % of control
- T/C (dose: 2.0 mg/kg/injection, schedule: Q01DX009 (ip), vehicle: Klucel (hydroxypropylcellulose) (HPC)): 91 % of control
- T/C (dose: 8.0 mg/kg/injection, schedule: Q01DX009 (ip), vehicle: Klucel (hydroxypropylcellulose) (HPC)): 109 % of control

SMILES: COc1cccc2c1C(=O)c1c(O)c3c(c(O)c1C2=O)C[C@@](O)(C(=O)COC(=O)Cc1cccc2ccccc12)C[C@@H]3OC1CC(N)C(O)C(C)O1 (stereo not given in full)
- T/C (dose: 1.0 mg/kg/injection, schedule: Q01DX009 (ip), vehicle: saline with Tween-80): 111 % of control
- T/C (dose: 2.0 mg/kg/injection, schedule: Q01DX009 (ip), vehicle: saline with Tween-80): 114 % of control
- T/C (dose: 4.0 mg/kg/injection, schedule: Q01DX009 (ip), vehicle: saline with Tween-80): 94 % of control

SMILES: CC1=CCC(C(C)C)C=C1 (stereo not given)
- T/C (dose: 25.0 mg/kg/injection, schedule: Q01DX009 (ip), vehicle: Klucel (hydroxypropylcellulose) (HPC)): 121 % of control
- T/C (dose: 50.0 mg/kg/injection, schedule: Q01DX009 (ip), vehicle: Klucel (hydroxypropylcellulose) (HPC)): 117 % of control
- T/C (dose: 100.0 mg/kg/injection, schedule: Q01DX009 (ip), vehicle: Klucel (hydroxypropylcellulose) (HPC)): 89 % of control and 100 % of control
- T/C (dose: 200.0 mg/kg/injection, schedule: Q01DX009 (ip), vehicle: Klucel (hydroxypropylcellulose) (HPC)): 98 % of control and 108 % of control

SMILES: CC1OC(=O)C(C(C)C)NC(=O)C(C(C)C)OC(=O)C(C(C)C)NC(=O)C(C)OC(=O)C(C(C)C)NC(=O)C(C(C)C)OC(=O)C(C(C)C)NC(=O)C(C)OC(=O)C(C(C)C)NC(=O)C(C(C)C)OC(=O)C(C(C)C)NC1=O (stereo not given)
- T/C (dose: 3.4 mg/kg/injection, schedule: Q01DX009 (ip), vehicle: saline with Tween-80): 86 % of control
- T/C (dose: 5.0 mg/kg/injection, schedule: Q01DX009 (ip), vehicle: saline with Tween-80): 86 % of control
- T/C (dose: 7.5 mg/kg/injection, schedule: Q01DX009 (ip), vehicle: saline with Tween-80): 91 % of control
- T/C (dose: 15.0 mg/kg/injection, schedule: Q04DX003 (ip), vehicle: saline with Tween-80): 86 % of control
- T/C (dose: 20.0 mg/kg/injection, schedule: Q04DX003 (ip), vehicle: saline with Tween-80): 90 % of control
- T/C (dose: 30.0 mg/kg/injection, schedule: Q01DX001 (ip), vehicle: saline with Tween-80): 86 % of control
- T/C (dose: 30.0 mg/kg/injection, schedule: Q04DX003 (ip), vehicle: saline with Tween-80): 91 % of control
- T/C (dose: 45.0 mg/kg/injection, schedule: Q01DX001 (ip), vehicle: saline with Tween-80): 97 % of control

— PubChem BioAssay AID194 (DTP/NCI, 2004)
